# Measurements taken from patent publication US20030113268A1, “Degradation-resistant glucocorticosteroid formulations” (priority 2000, published 2003).
# Test: Comparison of radical quenchers: impurities on storage at 40° C. and 75% relative humidity, uncoated canisters
# Type: physicochemical
# Conditions: for effectiveness in reducing degradation of the budesonide formulations: Tables X-XII, 40° C./75% relative humidity
# Description: To compare the effectiveness of various radical quenchers in preventing degradation of budesonide formulations, formulations containing budesonide, HFA-134a, ethanol, and a radical quencher were made in uncoated canisters using the steps described in Example I. The compositions of the formulations are shown in Table IX. Formulations were made containing each radical quencher with and without 3% aqueous hydrogen peroxide. The hydrogen peroxide was included in some formulations to challenge the radical quencher.
# The initial impurities in each formulation were measured, and the formulations were stored at 40° C. and 75% relative humidity. Impurities were measured again after 4 weeks and after 3 months. For selected formulations, impurities were also measured after 11 months.
effectiveness in reducing degradation of the budesonide formulations,physical stability of formulations including the radical quencher (clumping) (budesonide/ethanol/HFA-134a formulations),Compound
effectively reduced degradation,–,Vitamin E
very effective,tended to form clumps of solid matter,CCCCCCCCCCCCCCCC(=O)OC[C@H](O)[C@H]1OC(=O)C(O)=C1O [ascorbyl palmitate]

Compound,effectiveness in reducing degradation of the budesonide formulations,physical stability of formulations including the radical quencher (clumping) (budesonide/ethanol/HFA-134a formulations)
"COc1ccc(O)c(C(C)(C)C)c1 [butylated hydroxyanisole (BHA), butylated hydroxyanisole]",very effective,–
